{
  "source": "patent US7041851B2",
  "about": "“Fluorinated phenyl thiophenyl derivatives and their use for imaging serotonin transporters” (The Trustees of the University of Pennsylvania, priority 2002, dated 2006)",
  "assay": "Organ distribution and brain regional uptake of [18F]ACF in rats",
  "note": "Where “and” joins values, the source holds several entries; their conditions need not be identical. Equal entries are not always repeated.",
  "data": [
    {"smiles": "CN(C)Cc1ccccc1Sc1cc([18F])c(Cl)cc1N", "note": "[[^18F]ACF]", "values": [
      {"measurement": "Organ distribution: Brain", "setting": "30 min after iv injection", "value": "1.28 ± 0.14", "unit": "% dose/organ"},
      {"measurement": "Organ distribution: Heart", "setting": "30 min after iv injection", "value": "0.18 ± 0.02", "unit": "% dose/organ"},
      {"measurement": "Organ distribution: Kidney", "setting": "30 min after iv injection", "value": "2.64 ± 0.79", "unit": "% dose/organ"},
      {"measurement": "Organ distribution: Liver", "setting": "30 min after iv injection", "value": "15.20 ± 1.20", "unit": "% dose/organ"},
      {"measurement": "Organ distribution: Lung", "setting": "30 min after iv injection", "value": "1.76 ± 0.20", "unit": "% dose/organ"},
      {"measurement": "Organ distribution: Muscle", "setting": "30 min after iv injection", "value": "10.70 ± 1.68", "unit": "% dose/organ"},
      {"measurement": "Organ distribution: Skin", "setting": "30 min after iv injection", "value": "6.51 ± 0.66", "unit": "% dose/organ"},
      {"measurement": "Organ distribution: Spleen", "setting": "30 min after iv injection", "value": "0.29 ± 0.09", "unit": "% dose/organ"},
      {"measurement": "Ratio to Cerebellum: Cerebellum", "setting": "30 min after iv injection", "value": "1.00 ± 0.00"},
      {"measurement": "Ratio to Cerebellum: Cortex", "setting": "30 min after iv injection", "value": "1.69 ± 0.20"},
      {"measurement": "Ratio to Cerebellum: Hippocampus", "setting": "30 min after iv injection", "value": "1.89 ± 0.24"},
      {"measurement": "Ratio to Cerebellum: Hypothalamus", "setting": "30 min after iv injection", "value": "2.29 ± 0.06"},
      {"measurement": "Ratio to Cerebellum: Remainder", "setting": "30 min after iv injection", "value": "1.80 ± 0.11"},
      {"measurement": "Ratio to Cerebellum: Striatum", "setting": "30 min after iv injection", "value": "2.06 ± 0.19"},
      {"measurement": "Regional brain distribution: Cerebellum", "setting": "30 min after iv injection", "value": "0.37 ± 0.07", "unit": "% dose/g"},
      {"measurement": "Regional brain distribution: Cortex", "setting": "30 min after iv injection", "value": "0.62 ± 0.07", "unit": "% dose/g"},
      {"measurement": "Regional brain distribution: Hippocampus", "setting": "30 min after iv injection", "value": "0.70 ± 0.06", "unit": "% dose/g"},
      {"measurement": "Regional brain distribution: Hypothalamus", "setting": "30 min after iv injection", "value": "0.85 ± 0.14", "unit": "% dose/g"},
      {"measurement": "Regional brain distribution: Remainder", "setting": "30 min after iv injection", "value": "0.67 ± 0.09", "unit": "% dose/g"},
      {"measurement": "Regional brain distribution: Striatum", "setting": "30 min after iv injection", "value": "0.76 ± 0.08", "unit": "% dose/g"},
      {"measurement": "Organ distribution: Blood", "setting": "60 min after iv injection", "value": "4.65 ± 0.46", "unit": "% dose/organ"},
      {"measurement": "Organ distribution: Bone", "setting": "60 min after iv injection", "value": "0.08 ± 0.02", "unit": "% dose/organ"},
      {"measurement": "Organ distribution: Brain", "setting": "60 min after iv injection", "value": "0.69 ± 0.09", "unit": "% dose/organ"},
      {"measurement": "Organ distribution: Heart", "setting": "60 min after iv injection", "value": "0.11 ± 0.01", "unit": "% dose/organ"},
      {"measurement": "Organ distribution: Kidney", "setting": "60 min after iv injection", "value": "1.38 ± 0.25", "unit": "% dose/organ"},
      {"measurement": "Organ distribution: Liver", "setting": "60 min after iv injection", "value": "10.30 ± 2.50", "unit": "% dose/organ"},
      {"measurement": "Organ distribution: Lung", "setting": "60 min after iv injection", "value": "0.73 ± 0.08", "unit": "% dose/organ"},
      {"measurement": "Organ distribution: Muscle", "setting": "60 min after iv injection", "value": "7.69 ± 0.29", "unit": "% dose/organ"},
      {"measurement": "Organ distribution: Skin", "setting": "60 min after iv injection", "value": "5.97 ± 1.64", "unit": "% dose/organ"},
      {"measurement": "Organ distribution: Spleen", "setting": "60 min after iv injection", "value": "0.13 ± 0.02", "unit": "% dose/organ"},
      {"measurement": "Ratio to Cerebellum: Cerebellum", "setting": "60 min after iv injection", "value": "1.00 ± 0.00"},
      {"measurement": "Ratio to Cerebellum: Cortex", "setting": "60 min after iv injection", "value": "2.10 ± 0.47"},
      {"measurement": "Ratio to Cerebellum: Hippocampus", "setting": "60 min after iv injection", "value": "2.91 ± 0.64"},
      {"measurement": "Ratio to Cerebellum: Hypothalamus", "setting": "60 min after iv injection", "value": "3.53 and 3.53 ± 0.33"},
      {"measurement": "Ratio to Cerebellum: Remainder", "setting": "60 min after iv injection", "value": "2.56 ± 0.44"},
      {"measurement": "Ratio to Cerebellum: Striatum", "setting": "60 min after iv injection", "value": "2.88 ± 0.52"},
      {"measurement": "Regional brain distribution: Cerebellum", "setting": "60 min after iv injection", "value": "0.15 ± 0.03", "unit": "% dose/g"},
      {"measurement": "Regional brain distribution: Cortex", "setting": "60 min after iv injection", "value": "0.33 ± 0.13", "unit": "% dose/g"},
      {"measurement": "Regional brain distribution: Hippocampus", "setting": "60 min after iv injection", "value": "0.45 ± 0.13", "unit": "% dose/g"},
      {"measurement": "Regional brain distribution: Hypothalamus", "setting": "60 min after iv injection", "value": "0.54 ± 0.13", "unit": "% dose/g"},
      {"measurement": "Regional brain distribution: Remainder", "setting": "60 min after iv injection", "value": "0.39 ± 0.03", "unit": "% dose/g"},
      {"measurement": "Regional brain distribution: Striatum", "setting": "60 min after iv injection", "value": "0.45 ± 0.14", "unit": "% dose/g"},
      {"measurement": "Organ distribution: Blood", "setting": "120 min after iv injection", "value": "3.20 ± 0.57", "unit": "% dose/organ"},
      {"measurement": "Organ distribution: Bone", "setting": "120 min after iv injection", "value": "0.28 ± 0.06", "unit": "% dose/organ"},
      {"measurement": "Organ distribution: Brain", "setting": "120 min after iv injection", "value": "0.21 ± 0.03", "unit": "% dose/organ"},
      {"measurement": "Organ distribution: Heart", "setting": "120 min after iv injection", "value": "0.06 ± 0.01", "unit": "% dose/organ"},
      {"measurement": "Organ distribution: Kidney", "setting": "120 min after iv injection", "value": "0.78 ± 0.15", "unit": "% dose/organ"},
      {"measurement": "Organ distribution: Liver", "setting": "120 min after iv injection", "value": "5.90 ± 1.03", "unit": "% dose/organ"},
      {"measurement": "Organ distribution: Lung", "setting": "120 min after iv injection", "value": "0.32 ± 0.06", "unit": "% dose/organ"},
      {"measurement": "Organ distribution: Muscle", "setting": "120 min after iv injection", "value": "4.02 ± 1.22", "unit": "% dose/organ"},
      {"measurement": "Organ distribution: Skin", "setting": "120 min after iv injection", "value": "2.61 ± 0.17", "unit": "% dose/organ"},
      {"measurement": "Organ distribution: Spleen", "setting": "120 min after iv injection", "value": "0.06 ± 0.02", "unit": "% dose/organ"},
      {"measurement": "Ratio to Cerebellum: Cerebellum", "setting": "120 min after iv injection", "value": "1.00 ± 0.00"},
      {"measurement": "Ratio to Cerebellum: Cortex", "setting": "120 min after iv injection", "value": "1.77 ± 0.04"},
      {"measurement": "Ratio to Cerebellum: Hippocampus", "setting": "120 min after iv injection", "value": "2.67 ± 0.15"},
      {"measurement": "Ratio to Cerebellum: Hypothalamus", "setting": "120 min after iv injection", "value": "3.23 ± 0.21"},
      {"measurement": "Ratio to Cerebellum: Remainder", "setting": "120 min after iv injection", "value": "2.34 ± 0.09"},
      {"measurement": "Ratio to Cerebellum: Striatum", "setting": "120 min after iv injection", "value": "2.97 ± 0.16"},
      {"measurement": "Regional brain distribution: Cerebellum", "setting": "120 min after iv injection", "value": "0.05 ± 0.01", "unit": "% dose/g"},
      {"measurement": "Regional brain distribution: Cortex", "setting": "120 min after iv injection", "value": "0.09 ± 0.01", "unit": "% dose/g"},
      {"measurement": "Regional brain distribution: Hippocampus", "setting": "120 min after iv injection", "value": "0.14 ± 0.02", "unit": "% dose/g"},
      {"measurement": "Regional brain distribution: Hypothalamus", "setting": "120 min after iv injection", "value": "0.17 ± 0.01", "unit": "% dose/g"},
      {"measurement": "Regional brain distribution: Remainder", "setting": "120 min after iv injection", "value": "0.12 ± 0.01", "unit": "% dose/g"},
      {"measurement": "Regional brain distribution: Striatum", "setting": "120 min after iv injection", "value": "0.15 ± 0.02", "unit": "% dose/g"},
      {"measurement": "Organ distribution: Blood", "setting": "240 min after iv injection", "value": "2.33 ± 0.34", "unit": "% dose/organ"},
      {"measurement": "Organ distribution: Bone", "setting": "240 min after iv injection", "value": "0.27 ± 0.07", "unit": "% dose/organ"},
      {"measurement": "Organ distribution: Brain", "setting": "240 min after iv injection", "value": "0.06 ± 0.01", "unit": "% dose/organ"},
      {"measurement": "Organ distribution: Heart", "setting": "240 min after iv injection", "value": "0.04 ± 0.01", "unit": "% dose/organ"},
      {"measurement": "Organ distribution: Kidney", "setting": "240 min after iv injection", "value": "0.51 ± 0.07", "unit": "% dose/organ"},
      {"measurement": "Organ distribution: Liver", "setting": "240 min after iv injection", "value": "3.55 ± 0.35", "unit": "% dose/organ"},
      {"measurement": "Organ distribution: Lung", "setting": "240 min after iv injection", "value": "0.15 ± 0.02", "unit": "% dose/organ"},
      {"measurement": "Organ distribution: Muscle", "setting": "240 min after iv injection", "value": "2.08 ± 0.05", "unit": "% dose/organ"},
      {"measurement": "Organ distribution: Skin", "setting": "240 min after iv injection", "value": "1.53 ± 0.17", "unit": "% dose/organ"},
      {"measurement": "Organ distribution: Spleen", "setting": "240 min after iv injection", "value": "0.03 ± 0.00", "unit": "% dose/organ"},
      {"measurement": "Ratio to Cerebellum: Cerebellum", "setting": "240 min after iv injection", "value": "1.00 ± 0.00"},
      {"measurement": "Ratio to Cerebellum: Cortex", "setting": "240 min after iv injection", "value": "1.52 ± 0.21"},
      {"measurement": "Ratio to Cerebellum: Hippocampus", "setting": "240 min after iv injection", "value": "1.99 ± 0.23"},
      {"measurement": "Ratio to Cerebellum: Hypothalamus", "setting": "240 min after iv injection", "value": "2.37 and 2.37 ± 0.23"},
      {"measurement": "Ratio to Cerebellum: Remainder", "setting": "240 min after iv injection", "value": "1.58 ± 0.13"},
      {"measurement": "Ratio to Cerebellum: Striatum", "setting": "240 min after iv injection", "value": "2.35 ± 0.05"},
      {"measurement": "Regional brain distribution: Cerebellum", "setting": "240 min after iv injection", "value": "0.02 ± 0.00", "unit": "% dose/g"},
      {"measurement": "Regional brain distribution: Cortex", "setting": "240 min after iv injection", "value": "0.03 ± 0.01", "unit": "% dose/g"},
      {"measurement": "Regional brain distribution: Hippocampus", "setting": "240 min after iv injection", "value": "0.04 ± 0.01", "unit": "% dose/g"},
      {"measurement": "Regional brain distribution: Hypothalamus", "setting": "240 min after iv injection", "value": "0.05 ± 0.00", "unit": "% dose/g"},
      {"measurement": "Regional brain distribution: Remainder", "setting": "240 min after iv injection", "value": "0.03 ± 0.00", "unit": "% dose/g"},
      {"measurement": "Regional brain distribution: Striatum", "setting": "240 min after iv injection", "value": "0.05 ± 0.00", "unit": "% dose/g"},
      {"measurement": "Time of peak specific uptake in the hypothalamus region", "setting": "after injection", "value": "60 to 120", "unit": "min"},
      {"measurement": "Initial brain uptake", "setting": "iv", "value": "1.71±0.45", "unit": "% dose/g"}
    ]}
  ]
}
